Where two headings read alike, the source gives them in different places.
Tests used:
[1] = tested on: COc1cc2c(cc1OC)[C@H](c1ccc3c(c1)OCO3)NCC2; test: purified protein; conditions: co-substrate S-adenosylmethionine
[2] = tested on: COc1ccc(C[C@@H]2NCCc3cc(OC)c(OC)cc32)cc1OC; test: purified protein; conditions: co-substrate S-adenosylmethionine
[3] = tested on: IR45; test: imine reduction kinetics; conditions: read-out: F190L-W191F / K m; NADPH-dependent
[4] = tested on: IR45; test: imine reduction kinetics; conditions: read-out: F190M-W191F / K m; NADPH-dependent
[5] = tested on: IR45; test: imine reduction kinetics; conditions: read-out: IR45 / K m; NADPH-dependent

Molecule	Km [1] [µM]	kcat [1] [s⁻¹]	Km [2] [µM]	kcat [2] [s⁻¹]	Km [3] [µM]	Km [4] [µM]	Km [5] [µM]
Coclaurine N-methyltransferase (CNMT) (Coptis japonica)	806 ± 198	0.098 ± 0.031	807 ± 208	0.296 ± 0.042	–	–	–
COc1ccc(CC2=NCCc3cc(OC)c(OC)cc32)cc1OC [5a]	–	–	–	–	353	178	518
COc1cc2c(cc1OC)C(Cc1ccccc1)=NCC2 [4a]	–	–	–	–	252	251	148
COc1cc2c(cc1OC)C(c1cc(OC)c(OC)c(OC)c1)=NCC2 [3a]	–	–	–	–	372	–	–
COc1cc2c(cc1OC)C(c1ccc3c(c1)OCO3)=NCC2 [1a]	–	–	–	–	123	108	154
COc1ccc(C2=NCCc3cc(OC)c(OC)cc32)cc1OC [2a]	–	–	–	–	307	–	–

From publication PMC7067268, “Biosynthesis of plant tetrahydroisoquinoline alkaloids through an imine reductase route” (Chemical Science, 2019)
